Values of other authors as cited in publication PMC10146281, “Pharmacokinetic and Pharmacodynamic Characteristics of Pelubiprofen Tromethamine vs. Pelubiprofen in Healthy Subjects” (Pharmaceutics, 2023).
Like-named read-outs stand apart in the source and are kept apart here.

Conditions: cited from earlier work

Row | Structure (SMILES) | Cmax | Cmax (in vivo)
1 | CC(C)Cc1ccc(C(C)C(=O)O)cc1 (centres unmarked) [ibuprofen] | approximately 24 mg/L | –
2 | CC(C)Cc1ccc(C(C)C(=O)O)cc1.N=C(N)NCCC[C@H](N)C(=O)O (centres unmarked) [ibuprofen arginate] | – | approximately 30 mg/L
